According to patent US20260217699A1, “BERBERINE TAUROURSODEOXYCHOLATE COMPOSITIONS AND METHODS THEREOF” (SHENZHEN HIGHTIDE BIOPHARMACEUTICAL LTD., priority 2023, published 2026):

Assays:
IL-6 = test: Elisa test of cerebrospinal fluid, IL-6; assay type: in vivo, Sprague-Dawley rats; conditions: rat cerebrospinal fluid; BTUDC-H 1000 mg/kg p.o. Qd 21 days; Mean ± SEM, n=10; Model 159.058 ± 6.349; p<0.05 vs Model
Source text: The cerebrospinal fluid was directly extracted by inserting a needle through the foramen magnum, and the supernatant was collected after centrifugation for ELISA testing. The kit brand was Shanghai Enzyme Link. The product codes of IL-6, IL-1β, and TNF-α were m1064292, m1037361, and m1002859, respectively. Processed the sample according to the instructions of the ELISA detection kit, adjusted the blank well to zero, measured the absorbance (OD value) of each well sequentially at a wavelength of 450 nm, and calculated the sample concentration based on the standard curve and OD value. […]
Dosing volume: 10 mL/kg • 1. […] Histochemical test: After the behavioral test, the cerebrospinal fluid from each animal (N=10) was collected, centrifuged to collect the supernatant, and stored at −80° C. for Elisa test (IL-6, IL-1β, TNF-α), then the animals in each group (N=5) were randomly selected to take the modeling side of the striatum for the detection of neurotransmitters, and the rest of them (N=5) were subjected to cardiac perfusion, which was performed by the process of perfusion, fixation, sedimentation and slicing for immunofluorescence staining and photographed, and the number or area of signals were counted by ImageJ software. • 4. […]

[1] = system: 6-OHDA Stereotactic Injection Induced PD Rats; test: Balance beam test; assay type: in vivo, Sprague-Dawley rats; conditions: for Foot Slips Times / Passage Time: Mean ± SEM, N=10; for Foot Slips Times: Model 1.7 ± 0.2; for Passage Time: Model 10.9 ± 1.3
Source text: The rats were respiratory anesthetized with isoflurane; the head was fixed to ensure that there was no movement and the brain surface was adjusted to be flat; the head was shaved, and a skin incision was made along the sagittal suture to expose the fontanel point; the glass electrode was positioned to the fontanel, and the axes of the coordinate monitor were zeroed to locate the brain areas of the SN and the Str based on the coordinates, in which the SN: AP=−5.0 mm; ML=−1.9 mm; DV=−8.5 mm, and Str: AP=+0.5 mm; ML=−3.0 mm; DV=−6.0 mm. […]; slowly inserted the needle into the localized area of SN and Str, waited for 10 min, and then administered the drug of 6-OHDA at a rate of […] for 10 min, and each animal was given […] of each of SN and Str area, and then the needle was slowly withdrawn after the drug was administered for 10 min, and the PD rat model was established.
The rat was placed on a balance beam. The time was recorded it took for the rat to pass the balance beam as well as the number of foot slips (feet leave the top of the balance beam). The average of the two successful passing times and the number of foot slips were used as the evaluation criteria for the rat's locomotor balance ability. Information regarding beam test can also be found in the literature (Allbutt, et al. 2007 J Neurosci Methods 159(2):195-202; Fine, et al. 2014 Brain Res. 1574:96-104).
In this study, 16 Sprague Dawley (SD) male rats 180g-220g were used to establish a PD model by stereotactic unilateral injection of 6-OHDA in the substantia nigra (SN) and striatum (Str) brain areas after one week of acclimatization feeding and were randomly divided into 2 groups of 8 rats each. One group was dosed with the test compound BTUDC 500 mg/kg (QD, p.o.) and the other group was the Model group, which was given an equal volume of 0.5% CMC-Na (QD, p.o.) as the test compound group. The animals were administered once a day for 21 consecutive days starting from the second day after modeling to evaluate the tolerability and therapeutic potential of BTUDC in the 6-OHDA PD model.
Experimental Methods: Seventy 180-220g SD male rats were selected and fed for one week for accumulation, and the PD model was established by stereotactic unilateral injection of 6-OHDA in the Substantia Nigra (SN) and Striatum (Str) regions and were randomly divided into five groups according to their body weights including Madopar group (Madopar, 50 mg/kg), BTUDC-L group (BTUDC, 100 mg/kg), BTUDC-M group (BTUDC, 500 mg/kg), and BTUDC-H group (BTUDC, 1000 mg/kg), with 10 animals in each group. Another 10 SD male rats were taken for sham operation (only 4 μL of 0.9% NS containing 0.02% ascorbic acid was given to the SN and Str brain regions during modeling) as the Sham group. The drug was administered by gavage once daily continuously for 21 days starting on the second day of modeling (first day of dosing, D1). General observation was made during the dosing period. At the end of the administration, the test articles were evaluated for tolerance in this model and in behavioral apomorphine—asymmetric rotation test, beam test, rotarod test and grip strength test, immunofluorescence staining (TH, Ibal), and cerebrospinal fluid inflammatory factor assays to evaluate the pharmacodynamic effects of the test articles. Inflammatory factors tested included interleukin 6 (1L-6), inflammatory factor […], Tumor Necrosis Factor alpha (TNF-α), inflammatory assays were done in a total of 4 groups included Sham, Model, Madopar and BTUDC-H groups.

[2] = BTUDC-H 1000 mg/kg p.o. Qd 21 days, p<0.001 vs Model

COc1ccc2cc3[n+](cc2c1OC)CCc1cc2c(cc1-3)OCO2.C[C@H](CCC(=O)NCCS(=O)(=O)[O-])[C@H]1CC[C@H]2[C@@H]3[C@@H](O)C[C@@H]4C[C@H](O)CC[C@]4(C)[C@H]3CC[C@]12C [BTUDC, Berberine tauroursodeoxycholate]
IL-6 Conc. (IL-6): 147.095 ± 1.871 pg/mL
Beam Test Number of feet slips ([1]; 500 mg/kg QD p.o. 21 days, Model 1.313 ± 0.3772, P < 0.001 vs Model): 0.250 ± 0.0945
Beam Test Passing time ([1]; 500 mg/kg QD p.o. 21 days, Model 9.938 ± 1.8088, P < 0.001 vs Model): 3.563 ± 0.6228 s
Foot Slips Times [1, 2]: 0.6 ± 0.2
Passage Time [1, 2]: 4.8 ± 0.4 s
Foot Slips Times ([1]; BTUDC-L 100 mg/kg p.o. Qd 21 days, p<0.05 vs Model): 1.0 ± 0.3
Passage Time ([1]; BTUDC-L 100 mg/kg p.o. Qd 21 days, p<0.01 vs Model): 8.0 ± 0.7 s
Foot Slips Times ([1]; BTUDC-M 500 mg/kg p.o. Qd 21 days, p<0.01 vs Model): 0.8 ± 0.2
Passage Time ([1]; BTUDC-M 500 mg/kg p.o. Qd 21 days, p<0.001 vs Model): 6.4 ± 0.7 s
